Data taken from patent publication US10165777B2, “Substituted pyrazolylpyrazole derivative and use of same as herbicide” (KYOYU AGRI CO., LTD., priority 2015, dated 2019).

Key:
Assay type in all cases: in vivo
Echinochloa crus-galli = assay: Paddy herbicidal activity test; details: irrigated pot, treated at 3.5 leaf stage of Echinochloa crus-galli, 30 days
Protocol: (§1) 1. Paddy Herbicidal Activity Test Rice paddy soil was filled into a 1/10000 are pot followed by the addition of suitable amounts of water and chemical fertilizer, kneading, seeding with Echinochloa crus-galli, Monochoria vaginalis and Scirpus juncoides and maintaining in an irrigated state at a water depth of 3 cm. Wettable powders of Target Compound (I) shown in Table 1 prepared in compliance with the preparation examples were diluted with a suitable amount of water, rice plants in the 2.0 leaf stage were transplanted during 3.5 leaf stage of Echinochloa crus-galli, and treated by dropping in chemical in the prescribed amount per 10 are using a pipette. After treating for 30 days in a glass greenhouse at an average atmospheric temperature of 30° C., the herbicidal efficacy thereof was investigated. Evaluation of herbicidal efficacy was carried out by comparing growth inhibition rate (%) with an untreated group, while evaluation of phytotoxicity was carried out by comparing growth inhibition rate (%) with the state of a complete eradication group, and were evaluated at 11 levels indicated below.

Scirpus juncoides = assay: Paddy herbicidal activity test; details: irrigated pot, 30 days
Protocol: as §1

Monochoria vaginalis = assay: Paddy herbicidal activity test; details: irrigated pot, 30 days
Protocol: as §1

Amaranthus retroflexus [1] = assay: Farming soil treatment test; details: soil surface spray prior to weed growth, 30 days
Protocol: (§2) Field soil was filled into a 1/6000 are pot followed by seeding with Digitaria ciliaris, Chenopodium album and Amaranthus retroflexus and covering with soil. Wettable powders of compounds of formula (I) shown in Table 1 prepared in compliance with the preparation examples were diluted with water to the prescribed amount of chemical and uniformly sprayed onto each soil surface layer using 100 liters of sprayed water per 10 are prior to weed growth following seeding. After treating for 30 days in a glass greenhouse at an average atmospheric temperature of 30° C., the herbicidal efficacy thereof was investigated. Evaluation of herbicidal efficacy was carried out in the same manner as the above-mentioned Test Example 1.

Digitaria ciliaris [2] = assay: Farming soil treatment test; details: soil surface spray prior to weed growth, 30 days
Protocol: as §2

Chenopodium album [3] = assay: Farming soil treatment test; details: soil surface spray prior to weed growth, 30 days
Protocol: as §2

Oryza sativa = assay: Paddy herbicidal activity test, phytotoxicity to transplanted rice; details: rice transplanted in 2.0 leaf stage, 30 days
Protocol: as §1

Amaranthus retroflexus [4] = assay: Weed foliar treatment test (Test 3, 1.0 to 2.0 leaf stage); details: foliar spray at 1.0 to 2.0 leaf stage of Digitaria ciliaris, 3 weeks
Protocol: (§3) Soil was filled into a 1/6000 are pot followed by seeding with Digitaria ciliaris, Chenopodium album and Amaranthus retroflexus, covering with soil, and cultivating in a glass greenhouse at an average atmospheric temperature of 25° C. Wettable powders of Target Compound (I) shown in Table 1 prepared in compliance with the preparation examples were diluted with water to the prescribed amount of chemical and uniformly sprayed onto the weeds using 150 liters of sprayed water per 10 are when Digitaria ciliaris had grown to the 1.0 to 2.0 leaf stage. After treating for 3 weeks in a glass greenhouse at an average atmospheric temperature of 25° C., the herbicidal efficacy thereof was investigated. Evaluation of herbicidal efficacy was carried out in the same manner as the above-mentioned Test Example 1.

Digitaria ciliaris [5] = assay: as above; details: foliar spray at 1.0 to 2.0 leaf stage of Digitaria ciliaris, 3 weeks
Protocol: as §3

Chenopodium album [6] = assay: as above; details: foliar spray at 1.0 to 2.0 leaf stage of Digitaria ciliaris, 3 weeks
Protocol: as §3

Galinsoga parviflora = assay: Weed foliar treatment test (Test 4, 4.0 to 5.0 leaf stage); details: 10 g a.i./10 a; foliar spray at 4.0 to 5.0 leaf stage of Digitaria ciliaris; 20 days
Protocol: (§4) Field soil was filled into a 1/4500 are pot followed by seeding with Digitaria ciliaris and Galinsoga parviflora, covering with soil and cultivating in a glass greenhouse at an average atmospheric temperature of 25° C.
(§5) Wettable powders of Target Compound (I) shown in Table 1 prepared in compliance with the preparation examples were diluted with water to the prescribed amount of chemical and uniformly sprayed onto the weeds using 100 liters of sprayed water per 10 are when Digitaria ciliaris had grown to the 4.0 to 5.0 leaf stage (plant height: 10 cm to 15 cm).
(§6) After treating for 20 days in a glass greenhouse at an average atmospheric temperature of 25° C., the herbicidal efficacy thereof was investigated.
(§7) Evaluation of herbicidal efficacy was carried out in the same manner as the above-mentioned Test Example 1.

Digitaria ciliaris [7] = assay: as above; details: 10 g a.i./10 a; foliar spray at 4.0 to 5.0 leaf stage of Digitaria ciliaris (plant height 10 cm to 15 cm); 20 days
Protocol: as §4, §5, §6, §7

## N#Cc1cnn(-c2nn3c(c2Cl)CCCC3)c1N=CC1CCCCC1 [Compound 1, 1-(3-chloro-4,5,6,7-tetrahydropyrazolo[1,5-a]pyridin-2-yl)-5-(cyclohexylmethyleneamino)pyrazole-4-carbonitrile]
Echinochloa crus-galli; 1 g a.i./10 a
  herbicidal efficacy, Echinochloa crus-galli: 10 (100%)
Echinochloa crus-galli; 5 g a.i./10 a
  herbicidal efficacy, Echinochloa crus-galli: 10 (100%)
Scirpus juncoides; 1 g a.i./10 a
  herbicidal efficacy, Scirpus juncoides: 9 (90% to less than 100%)
Scirpus juncoides; 5 g a.i./10 a
  herbicidal efficacy, Scirpus juncoides: 10 (100%)
Monochoria vaginalis; 1 g a.i./10 a
  herbicidal efficacy, Monochoria vaginalis: 9 (90% to less than 100%)
Monochoria vaginalis; 5 g a.i./10 a
  herbicidal efficacy, Monochoria vaginalis: 10 (100%)
Amaranthus retroflexus [1]; 5 g a.i./10 a
  herbicidal efficacy, Amaranthus retroflexus: 10 (100%)
Amaranthus retroflexus [1]; 10 g a.i./10 a
  herbicidal efficacy, Amaranthus retroflexus: 10 (100%)
Digitaria ciliaris [2]; 5 g a.i./10 a
  herbicidal efficacy, Digitaria ciliaris: 9 (90% to less than 100%)
Digitaria ciliaris [2]; 10 g a.i./10 a
  herbicidal efficacy, Digitaria ciliaris: 9 (90% to less than 100%)
Chenopodium album [3]; 5 g a.i./10 a
  herbicidal efficacy, Chenopodium album: 9 (90% to less than 100%)
Chenopodium album [3]; 10 g a.i./10 a
  herbicidal efficacy, Chenopodium album: 10 (100%)
Oryza sativa; 1 g a.i./10 a
  phytotoxicity, Oryza sativa: 0 (0% to less than 10% (growth inhibition rate))
Oryza sativa; 5 g a.i./10 a
  phytotoxicity, Oryza sativa: 0 (0% to less than 10% (growth inhibition rate))
Amaranthus retroflexus [4]; 5 g a.i./10 a
  herbicidal efficacy, Amaranthus retroflexus: 10 (100%)
Amaranthus retroflexus [4]; 10 g a.i./10 a
  herbicidal efficacy, Amaranthus retroflexus: 10 (100%)
Digitaria ciliaris [5]; 5 g a.i./10 a
  herbicidal efficacy, Digitaria ciliaris: 10 (100%)
Digitaria ciliaris [5]; 10 g a.i./10 a
  herbicidal efficacy, Digitaria ciliaris: 10 (100%)
Chenopodium album [6]; 5 g a.i./10 a
  herbicidal efficacy, Chenopodium album: 10 (100%)
Chenopodium album [6]; 10 g a.i./10 a
  herbicidal efficacy, Chenopodium album: 10 (100%)

## N#Cc1cnn(-c2nn3c(c2Cl)CCCC3)c1N=C1CCCC1 [Compound 8]
Galinsoga parviflora
  herbicidal efficacy, Galinsoga parviflora: 10 (100%)
Digitaria ciliaris [7]
  herbicidal efficacy, Digitaria ciliaris: 10 (100%)

## N#Cc1cnn(-c2nn3c(c2Cl)CCCC3)c1N=Cc1ccccc1OC(F)F [Compound 12]
Galinsoga parviflora
  herbicidal efficacy, Galinsoga parviflora: 10 (100%)
Digitaria ciliaris [7]
  herbicidal efficacy, Digitaria ciliaris: 10 (100%)

## N#Cc1cnn(-c2nn3c(c2Cl)CCCC3)c1N=Cc1ccccc1F [Compound 13]
Galinsoga parviflora
  herbicidal efficacy, Galinsoga parviflora: 10 (100%)
Digitaria ciliaris [7]
  herbicidal efficacy, Digitaria ciliaris: 10 (100%)

## N#Cc1cnn(-c2nn3c(c2Cl)CCCC3)c1N=Cc1cccc(Cl)c1 [Compound 17]
Galinsoga parviflora
  herbicidal efficacy, Galinsoga parviflora: 10 (100%)
Digitaria ciliaris [7]
  herbicidal efficacy, Digitaria ciliaris: 10 (100%)

## Cc1ccc(C=Nc2c(C#N)cnn2-c2nn3c(c2Cl)CCCC3)cc1 [Compound 18]
Galinsoga parviflora
  herbicidal efficacy, Galinsoga parviflora: 10 (100%)
Digitaria ciliaris [7]
  herbicidal efficacy, Digitaria ciliaris: 10 (100%)

## N#Cc1cnn(-c2nn3c(c2Cl)CCCC3)c1N=Cc1ccc(C(F)(F)F)cc1 [Compound 19]
Galinsoga parviflora
  herbicidal efficacy, Galinsoga parviflora: 10 (100%)
Digitaria ciliaris [7]
  herbicidal efficacy, Digitaria ciliaris: 10 (100%)

## N#Cc1cnn(-c2nn3c(c2Cl)CCCC3)c1N=Cc1ccc(Cl)cc1 [Compound 20]
Galinsoga parviflora
  herbicidal efficacy, Galinsoga parviflora: 10 (100%)
Digitaria ciliaris [7]
  herbicidal efficacy, Digitaria ciliaris: 10 (100%)

## N#Cc1cnn(-c2nn3c(c2Cl)CCCC3)c1N=Cc1ccccn1 [Compound 21]
Galinsoga parviflora
  herbicidal efficacy, Galinsoga parviflora: 10 (100%)
Digitaria ciliaris [7]
  herbicidal efficacy, Digitaria ciliaris: 10 (100%)

## N#Cc1cnn(-c2nn3c(c2Cl)CCCC3)c1N=Cc1cccnc1 [Compound 22]
Echinochloa crus-galli; 1 g a.i./10 a
  herbicidal efficacy, Echinochloa crus-galli: 10 (100%)
Echinochloa crus-galli; 5 g a.i./10 a
  herbicidal efficacy, Echinochloa crus-galli: 10 (100%)
Scirpus juncoides; 1 g a.i./10 a
  herbicidal efficacy, Scirpus juncoides: 10 (100%)
Scirpus juncoides; 5 g a.i./10 a
  herbicidal efficacy, Scirpus juncoides: 10 (100%)
Monochoria vaginalis; 1 g a.i./10 a
  herbicidal efficacy, Monochoria vaginalis: 10 (100%)
Monochoria vaginalis; 5 g a.i./10 a
  herbicidal efficacy, Monochoria vaginalis: 10 (100%)
Galinsoga parviflora
  herbicidal efficacy, Galinsoga parviflora: 10 (100%)
Digitaria ciliaris [7]
  herbicidal efficacy, Digitaria ciliaris: 9 (90% to less than 100%)
Amaranthus retroflexus [1]; 5 g a.i./10 a
  herbicidal efficacy, Amaranthus retroflexus: 10 (100%)
Amaranthus retroflexus [1]; 10 g a.i./10 a
  herbicidal efficacy, Amaranthus retroflexus: 10 (100%)
Digitaria ciliaris [2]; 5 g a.i./10 a
  herbicidal efficacy, Digitaria ciliaris: 9 (90% to less than 100%)
Digitaria ciliaris [2]; 10 g a.i./10 a
  herbicidal efficacy, Digitaria ciliaris: 9 (90% to less than 100%)
Chenopodium album [3]; 5 g a.i./10 a
  herbicidal efficacy, Chenopodium album: 9 (90% to less than 100%)
Chenopodium album [3]; 10 g a.i./10 a
  herbicidal efficacy, Chenopodium album: 10 (100%)
Oryza sativa; 1 g a.i./10 a
  phytotoxicity, Oryza sativa: 0 (0% to less than 10% (growth inhibition rate))
Oryza sativa; 5 g a.i./10 a
  phytotoxicity, Oryza sativa: 1 (10% to less than 20%)

## CC(=Nc1c(C#N)cnn1-c1nn2c(c1Cl)CCCC2)c1ccccn1 [Compound 24]
Galinsoga parviflora
  herbicidal efficacy, Galinsoga parviflora: 10 (100%)
Digitaria ciliaris [7]
  herbicidal efficacy, Digitaria ciliaris: 10 (100%)

## CC(=Nc1c(C#N)cnn1-c1nn2c(c1Cl)CCCC2)c1cccnc1 [Compound 25]
Galinsoga parviflora
  herbicidal efficacy, Galinsoga parviflora: 10 (100%)
Digitaria ciliaris [7]
  herbicidal efficacy, Digitaria ciliaris: 10 (100%)

## CC(=Nc1c(C#N)cnn1-c1nn2c(c1Cl)CCCC2)c1cnccn1 [Compound 27]
Galinsoga parviflora
  herbicidal efficacy, Galinsoga parviflora: 10 (100%)
Digitaria ciliaris [7]
  herbicidal efficacy, Digitaria ciliaris: 10 (100%)

## N#Cc1cnn(-c2nn3c(c2Cl)CCCC3)c1N=Cc1ccc[nH]1 [Compound 28]
Galinsoga parviflora
  herbicidal efficacy, Galinsoga parviflora: 10 (100%)
Digitaria ciliaris [7]
  herbicidal efficacy, Digitaria ciliaris: 10 (100%)

## CC(=Nc1c(C#N)cnn1-c1nn2c(c1Cl)CCCC2)c1ccc[nH]1 [Compound 29]
Galinsoga parviflora
  herbicidal efficacy, Galinsoga parviflora: 10 (100%)
Digitaria ciliaris [7]
  herbicidal efficacy, Digitaria ciliaris: 10 (100%)
Amaranthus retroflexus [4]; 5 g a.i./10 a
  herbicidal efficacy, Amaranthus retroflexus: 9 (90% to less than 100%)
Amaranthus retroflexus [4]; 10 g a.i./10 a
  herbicidal efficacy, Amaranthus retroflexus: 10 (100%)
Digitaria ciliaris [5]; 5 g a.i./10 a
  herbicidal efficacy, Digitaria ciliaris: 9 (90% to less than 100%)
Digitaria ciliaris [5]; 10 g a.i./10 a
  herbicidal efficacy, Digitaria ciliaris: 10 (100%)
Chenopodium album [6]; 5 g a.i./10 a
  herbicidal efficacy, Chenopodium album: 10 (100%)
Chenopodium album [6]; 10 g a.i./10 a
  herbicidal efficacy, Chenopodium album: 10 (100%)

## N#Cc1cnn(-c2nn3c(c2Cl)CCCC3)c1N=Cc1ccsc1 [Compound 31]
Galinsoga parviflora
  herbicidal efficacy, Galinsoga parviflora: 10 (100%)
Digitaria ciliaris [7]
  herbicidal efficacy, Digitaria ciliaris: 10 (100%)

## N#Cc1cnn(-c2nn3c(c2Cl)CCCC3)c1N=Cc1ccoc1 [Compound 32]
Galinsoga parviflora
  herbicidal efficacy, Galinsoga parviflora: 10 (100%)
Digitaria ciliaris [7]
  herbicidal efficacy, Digitaria ciliaris: 10 (100%)

## CCOC=Nc1c(C#N)cnn1-c1nn2c(c1Cl)CCCC2 [Compound 34]
Galinsoga parviflora
  herbicidal efficacy, Galinsoga parviflora: 10 (100%)
Digitaria ciliaris [7]
  herbicidal efficacy, Digitaria ciliaris: 9 (90% to less than 100%)

## CC(C)OC=Nc1c(C#N)cnn1-c1nn2c(c1Cl)CCCC2 [Compound 36]
Galinsoga parviflora
  herbicidal efficacy, Galinsoga parviflora: 10 (100%)
Digitaria ciliaris [7]
  herbicidal efficacy, Digitaria ciliaris: 10 (100%)

## CCCCOC=Nc1c(C#N)cnn1-c1nn2c(c1Cl)CCCC2 [Compound 37]
Galinsoga parviflora
  herbicidal efficacy, Galinsoga parviflora: 10 (100%)
Digitaria ciliaris [7]
  herbicidal efficacy, Digitaria ciliaris: 10 (100%)
